Measured values from publication PMC11982498 (Redox Biology, 2025).

Assays:
APP/PS1 transgenic mice [1] = assay: TUNEL staining of brain sections; format: in vivo; settings: B14 10, 20, 40 mg/kg i.p. every other day
Source text: (§1) Five months old male APP/PS1 mice, weighing 25–33 g, were purchased from Guangdong Medical Laboratory Animal Center and housed in the Laboratory Animal Center of Sun Yat-sen University (Guangzhou, China) for experimentation. All procedures were approved by the Animal Care and Use Committee of Sun Yat-sen University and complied with legal requirements and national guidelines for the care and maintenance of laboratory animals (Approval No. SYSU-IACUC-2024-002032). The mice were housed in a specific pathogen-free environment with a controlled temperature of 22 ± 1 °C and a 12-h dark/light cycle. The mice were fed with a standard diet, and 30 mice were randomly divided into 6 groups (N = 5). Compound B14 was dissolved in saline and administered at doses of 10, 20, or 40 mg/kg. APP/PS1 male mice were grown until 6 months of age, and then injected intraperitoneally with compound B14 every other day for 60 days. Behavioral experiments were then conducted, and tissue specimens were collected for biochemical analysis.

[2] = tested on: BCL-2, C-MYC and VEGF protein expressions in SH-SY5Y cells; assay: Western blot in SH-SY5Y cells; format: cell-based; settings: increasing concentration of B14, 24 h
Description: (§2) Protein samples (25–40 μg) were separated using 10 % SDS-PAGE and subsequently transferred onto PVDF membranes (0.22 μm, Servicebio, Guangzhou, China) via electro transfer. Following blocking with TBST solution (Servicebio, Guangzhou, China) containing 5 % BSA (Solarbio, Beijing, China) for approximately 60 min at room temperature, the membrane was exposed to various primary antibodies overnight at 4 °C on a rotating shaker. Then, the membranes were incubated with HRP-conjugated secondary antibody (Affinity, Changzhou, China) for 2 h. Protein bands were then detected using an ECL kit. The signal intensity of each target protein was quantified using Image J 1.8.0 software (Bio-Rad Laboratories, California, USA).
Primary antibodies for Western blot analysis include BCL-2 (affinity biosciences OH, Cat# AF6139, USA), BAX (affinity biosciences OH, Cat# AF0120, USA), VEGF (affinity biosciences OH, Cat# AF5131, USA), C-MYC (affinity biosciences OH, Cat# AF0358, USA), Caspase9 (affinity biosciences OH, Cat# AF6348, USA), cleaved-Caspase9 (affinity biosciences OH, Cat# AF5240, USA), Caspase3 (affinity biosciences OH, Cat# AF6311, USA), cleaved-Caspase3 (affinity biosciences OH, Cat# AF7022, USA), and Cyto-C (affinity biosciences OH, Cat# AF6139, USA).

[3] = tested on: F-BCL-2 (BCL-2 IM) (DNA, i motif) CAGCCCCGCTCCCGCCCCCTTCCTCCCGCGCCCGCCCCT; assay: MST, Hill fit; settings: K+ 100 mM KCl plus potassium phosphate; BPES buffer (30 mM phosphate, 1 mM EDTA), pH 5.5
[4] = tested on: GFAP, Iba-1, NF-κB, TNF-α and IL-6 in hippocampus of APP/PS1 mice; assay: Neuroinflammation markers in hippocampus; format: in vivo
Description: as §2
Five months old male APP/PS1 mice, weighing 25–33 g, were purchased from Guangdong Medical Laboratory Animal Center and housed in the Laboratory Animal Center of Sun Yat-sen University (Guangzhou, China) for experimentation. All procedures were approved by the Animal Care and Use Committee of Sun Yat-sen University and complied with legal requirements and national guidelines for the care and maintenance of laboratory animals (Approval No. SYSU-IACUC-2024-002032). The mice were housed in a specific pathogen-free environment with a controlled temperature of 22 ± 1 °C and a 12-h dark/light cycle. […]

BCL-2 i-motif = assay: ESI-MS with BCL-2 i-motif; format: binding; settings: pH 6.5
Description: The oligomer for BCL-2 promoter […] at concentration of 5 μM was annealed in 1 × BPES buffer with or without 20 μM B14 at 95 °C for 5 min, followed by cooling to room temperature. Mass spectrometry signals were collected by using ESI-MS (Thermo, LCQ DECA Plus XP) and analyzed by using pro-mass.

[5] = tested on: BCL-2(G4) (DNA, G4) AGGGGCGGGCGCGGGAGGAAGGGGGCGGGAGCGGGGCTG; assay: CD melting, 260 nm; settings: K+ 100 mM; Figure S6 legend says Na+ 20 mM; Tris-HCl, pH 7.4; 20 μM B14, 2 μM DNA
APP/PS1 transgenic mice [6] = assay: Nissl and H&E staining of hippocampus; format: in vivo; settings: vs model group
Source text: as §1
The mice were sacrificed, with their brains and organs isolated and embedded in paraffin. The brains and organs were then sectioned into 6 μm thin slices. These slices were subjected to H&E or Nissl staining (Servicebio, Guangzhou, China). The stained sections were subsequently imaged and analyzed by using microscopy.

[7] = tested on: bio-ILPR (DNA, i motif) TGTCCCCACACCCCTGTCCCCACACCCCTGT; assay: SPR; settings: K+ 100 mM; 20 mM MES, pH 5.5, 25 °C
Aβ1-42 = target: T1, Aβ1-42 (Homo sapiens, UniProt P05067); assay: Circular dichroism of Aβ1-42 secondary structure; format: biochemical; settings: 20 μM compound, 72 h
T1 construct: Aβ1-42 was purchased from Gill Biochemicals Ltd (Shanghai, China); purchased Gill Biochemicals Ltd (Shanghai, China)
Description: (§3) The circular dichroism (CD) experiment was performed to investigate the effect of B14 (20 μM) or Curcumin (20 μM) on the change of Aβ1-42 secondary structure. The Aβ1-42 solutions (100 μM) were co-incubated with B14 (20 μM) or Curcumin (20 μM) at 37 °C for 72h. Ellipticity changes of Aβ1-42 were monitored employing a Chirascan CD spectropolarimeter (Chirascan, England).
as §3, with “Circular dichroism” for “The circular dichroism”, “μM) and” for “μM) or”, “spectropolarimeter (Applied Photophysics, UK).” for “spectropolarimeter (Chirascan, England).”

SH-SY5Y cells = assay: FITC Annexin V/PI cell apoptosis analysis in Aβ1-42 model; format: cell-based; settings: 25 μM Aβ1-42 induced model
Description: The FITC Annexin V/PI apoptosis analysis was conducted using the FITC Annexin V/PI Apoptosis Detection Kit (Muti sciences, 70-AP101-100). Cells were treated with varying concentrations of B14 in a 6-well plate containing a cell model induced with 25 μM Aβ1-42. After digestion and resuspension in 500 μL binding buffer, samples were incubated with 5 μL of FITC Annexin V for 5 minutes, followed by the addition of 5 μL PI for further incubation at room temperature for 10 minutes. Flow cytometry analysis (Millipore, guava easy Cyte) was used to measure fluorescence intensity, and data analysis was performed using Flow jo V10.

T1 sequence (P05067 672-713 limits assumed): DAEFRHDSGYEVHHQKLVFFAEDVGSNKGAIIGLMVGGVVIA

O=C(CCN1CCOCC1)Nc1ccc2c(c1)c(=O)c1cc(NC(=O)CCN3CCOCC3)ccc1n2-c1ccc2occc2c1 [Compound B14]
proportion of TUNEL-positive neurons (APP/PS1 transgenic mice [1]): significantly decreased the proportion of TUNEL-positive neurons
BCL-2 translation (Western blot) [2]: up-regulate BCL-2 translation in SH-SY5Y cells in a dose-dependent manner
C-MYC and VEGF expression (Western blot) [2]: without significant effect on C-MYC and VEGF expression
KD [3]: 1.06 µM
activation of astrocytes (GFAP) and microglia (Iba-1) [4]: reduce the activations of astrocytes
expressions of inflammatory factors [4]: decrease the expressions of the inflammatory factors NF-κB, TNF-α and IL-6
adduct peak in ESI-MS (BCL-2 i-motif): could bind tightly to BCL-2 i-motif
ΔTm [5]: -3.13 °C
hippocampal neuron damage (HE staining) (APP/PS1 transgenic mice [6]): could reverse the damage of hippocampal neurons in mice
number of Nissl bodies in CA1-CA4 and DG regions (APP/PS1 transgenic mice [6]): restored
KD [7]: > 50 µM
CD signal intensity of Aβ1-42 (Aβ1-42): much decreased
apoptosis ratio (SH-SY5Y cells): decreased in a dose-dependent manner
